Assay results published in patent US6215002A, “Pyrrolopyrrolone derivatives as inhibitors of neutrophil elastase” (priority 1996, dated 2001).
Counter-ions that a name gives are not always drawn.

Molecular target: T1, human neutrophil elastase (Homo sapiens, UniProt P08246)
T1 sequence (P08246 30-267): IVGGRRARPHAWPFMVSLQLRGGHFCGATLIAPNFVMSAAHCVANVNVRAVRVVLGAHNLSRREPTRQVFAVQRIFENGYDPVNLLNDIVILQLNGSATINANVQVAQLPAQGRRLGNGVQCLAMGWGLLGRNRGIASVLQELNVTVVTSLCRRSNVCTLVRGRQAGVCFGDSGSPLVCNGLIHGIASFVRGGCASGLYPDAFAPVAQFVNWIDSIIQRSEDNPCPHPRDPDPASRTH
Assay: In vitro assay of human neutrophil elastase (HNE)
Type: biochemical
Conditions: 118 nM purified human neutrophil elastase, pH 8.6, 15 min incubation at 30° C., MeO-succinyl-alanyl-alanyl-prolyl-valyl-p-nitroanilide substrate; read-out: HNE IC50
How it was run: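 Residual activity was taken as the 10 min rate of absorbance rise at 405 nm after adding 0.6 mM MeO-succinyl-AAPV-p-nitroanilide. Curve fitting of activity against concentration gave IC50.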

| SMILES | IC50 [µM] |
| --- | --- |
| CCC[C@H]1C(=O)N(S(C)(=O)=O)[C@H]2CCN(S(=O)(=O)c3ccc(C(=O)N4CCCCC4)cc3)[C@H]12 (relative stereo) [Example 119, rel-(3R,3aR,6aS)-1-Methanesulfonyl-4-[4-(piperidine-1-carbonyl)-benzenesulfonyl]-3-propyl-hexahydro-pyrrolo[3,2-b]pyrrol-2-one] | 0.034 |
| CCC[C@H]1C(=O)N(S(C)(=O)=O)[C@H]2CCN(C(=O)c3ccc(NC(C)=O)cc3)[C@H]12 (relative stereo) [Example 120, rel-N-[4-(4-Methanesulfonyl-5-oxo-6R-propyl-hexahydro-(3aS,6aR)-pyrrolo[3,2-b]pyrrole-1-carbonyl)-phenyl]-acetamide] | 0.042 |
| CCC[C@H]1C(=O)N(S(C)(=O)=O)[C@H]2CCN(S(=O)(=O)c3ccc(C(=O)NCCN4CCCCC4)cc3)[C@H]12 (relative stereo) [Example 121, rel-4-(4-Methanesulfonyl-5-oxo-6R-propyl-hexahydro-(3aS,6aR)-pyrrolo[3,2-b]pyrrole-1-sulfonyl)-N-(2-piperidin-1-yl-ethyl)-benzamide hydrochloride] | 0.014 |
| CCC[C@H]1C(=O)N(S(C)(=O)=O)[C@H]2CCN(S(=O)(=O)c3ccc(C(=O)O)cc3)[C@@H]12 (relative stereo) [Example 122, rel-(3aS,6R,6aS)-4-(4-Methanesulfonyl-5-oxo-6-propyl-hexahydro-pyrrolo[3,2-b]pyrrole-1-sulfonyl)-benzoic acid] | 0.004 |
| CCC[C@H]1C(=O)N(S(C)(=O)=O)[C@H]2CCN(S(=O)(=O)c3ccc(C(=O)NCCN(C)C)cc3)[C@H]12 (relative stereo) [Example 123, rel-N-(2-Dimethylamino-ethyl)-4-(4-methanesulfonyl-5-oxo-6R-propyl-hexahydro-(3aS,6aR)-pyrrolo[3,2-b]pyrrole-1-sulfonyl)-benzamide hydrochloride] | 0.014 |
| CCC[C@H]1C(=O)N(S(C)(=O)=O)[C@H]2CCN(S(=O)(=O)c3ccc(C(=O)NC)cc3)[C@H]12 (relative stereo) [Example 124, rel-(3aS,6R,6aR)-4-(4-Methanesulfonyl-5-oxo-6-hexahydro-pyrrolo[3,2-b]pyrrole-1-sulfonyl)-N-methyl-benzamide] | 0.008 |
| CCC[C@H]1C(=O)N(S(C)(=O)=O)[C@H]2CCN(S(=O)(=O)c3ccc(C(=O)NC4CC4)cc3)[C@H]12 (relative stereo) [Example 125, rel-N-Cyclopropyl-4-(4-methanesulfonyl-5-oxo-6R-propyl-hexahydro-(3aS,6aR)-pyrrolo[3,2-b]pyrrole-1-sulfonyl)-benzamide] | 0.013 |
| CCC[C@H]1C(=O)N(S(C)(=O)=O)[C@H]2CCN(S(=O)(=O)c3ccc(C(=O)N(C)C)cc3)[C@H]12 (relative stereo) [Example 126, rel-4-(4-Methanesulfonyl-5-oxo-6R-propyl-hexahydro-(3aS,6aR)-pyrrolo[3,2-b]pyrrole-1-sulfonyl)-N,N-dimethyl-benzamide] | 0.01 |
| CCC[C@H]1C(=O)N(S(C)(=O)=O)[C@H]2CCN(S(=O)(=O)c3ccc(C(=O)N4CCN(C)CC4)cc3)[C@H]12 (relative stereo) [Example 127, rel-(3R,3aR,6aS)-1-Methanesulfonyl-4-[4-(4-methyl-piperazine-1-carbonyl)-benzenesulfonyl]-3-propyl-hexahydro-pyrrolo[3,2-b]pyrrol-2-one hydrochloride] | 0.04 |
| CCC[C@H]1C(=O)N(S(C)(=O)=O)[C@H]2CCN(C(=O)/C=C/C(=O)OCC)[C@H]12 (relative stereo) [Example 128, rel-(3R,3aR,6aS)-4-(4-Methanesulfonyl-5-oxo-6-propyl-hexahydro-pyrrolo[3,2-b]pyrrole-1-yl)-4-oxo-but-2E-enoic acid ethyl ester] | 0.03 |
| CCC[C@H]1C(=O)N(S(C)(=O)=O)[C@H]2CCN(C(=O)/C=C/C(=O)O)[C@H]12 (relative stereo) [Example 129, rel-4-(4-Methanesulfonyl-5-oxo-6R-propyl-hexahydro-(3aS,6aR)-pyrrolo[3,2-b]pyrrol-1-yl)-oxo-but-2-E-enoic acid] | 0.014 |
| CCC[C@H]1C(=O)N(S(C)(=O)=O)[C@H]2CCN(C(=O)/C=C/C(=O)N3CCN(C)CC3)[C@H]12 (relative stereo) [Example 130, rel-(3R,3aR,6aS)-1-(4-Methanesulfonyl-5-oxo-6-propyl-hexahydro-pyrrolo[3,2-b]pyrrol-1-yl)-4-(4-methyl-piperazin-1-yl)-but-2E-ene-1,4-dione hydrochloride] | 0.047 |
| C/C=C/C(=O)N1CC[C@H]2[C@H]1[C@@H](CCC)C(=O)N2S(C)(=O)=O (relative stereo) [Example 131, rel-(3R,3aR,6aS)-4-But-2E-enoyl-1-methanesulfonyl-3-propyl-hexahydro-pyrrolo[3,2-b]pyrrol-2-one] | 0.102 |
| CCC[C@H]1C(=O)N(S(C)(=O)=O)[C@H]2CCN(C(=O)/C=C/c3ccc(CN4CCN(C)CC4)cc3)[C@H]12 (relative stereo) [Example 132, rel-(3R,3aR,6aS)-1-Methanesulfonyl-4-{3-(4-(4-methyl-piperazin-1-ylmethy)-phenyl-(E)-acryloyl}-3-propyl-hexahydro-pyrrolo[3,2-b]pyrrol-2-one dihydrochloride] | 0.083 |
| CCC[C@H]1C(=O)N(S(C)(=O)=O)[C@H]2CCN(C(=O)/C=C/c3ccc(CN4CCCCC4)cc3)[C@H]12 (relative stereo) [Example 133, rel-(3R,3aR,6aS)-1-Methanesulfonyl-4-[3-(4-piperidin-1-ylmethyl-phenyl)-(E)-acryloyl]-3-propyl-hexahydro-pyrrolo[3,2-b]pyrrol-2-one hydrochloride] | 0.061 |
| CCC[C@H]1C(=O)N(S(C)(=O)=O)[C@H]2CCN(C(=O)/C=C/c3ccc(NC(C)=O)cc3)[C@H]12 (relative stereo) [Example 134, rel-N-{4-[3-(4-Methanesulfonyl-5-oxo-6R-propyl-hexahydro-(3aS,6aR)-pyrrolo[3,2-b]pyrrol-1-yl)-3-oxo-(E)-propenyl]-phenyl}acetamide] | 0.023 |
| CO[C@H]1C(=O)N(S(C)(=O)=O)[C@H]2CCN(C(=O)OCc3ccccc3)[C@H]12 (relative stereo) [Example 156, rel-(3aS,6R,6aS)-4-Methanesulfonyl-6-methoxy-5-oxo-hexahydro-pyrrolo[3,2-b]pyrrole-1-carboxylic acid benzyl ester] | 0.16 |

Continued, values first:

| IC50 [µM] | SMILES |
| --- | --- |
| 0.209 | CS[C@H]1C(=O)N(S(C)(=O)=O)[C@H]2CCN(C(=O)OCc3ccccc3)[C@H]12 (relative stereo) [Example 157] |
| 0.119 | CCC[C@H]1C(=O)N(S(=O)(=O)CC)[C@H]2CCN(C(=O)CCN3CCCCC3)[C@H]12 (relative stereo) [Example 160, rel-(3R,3aR,6aS)-1-Ethanesulfonyl-4-(3-piperidin-1-yl-propionyl)-3-propyl-hexahydro-pyrrolo[3,2-b]pyrrol-2-one DL-tartrate] |
| 1.03 | CCC[C@H]1C(=O)N(S(=O)(=O)C(C)C)[C@H]2CCN(C(=O)CCN3CCCCC3)[C@H]12 (relative stereo) [Example 161, rel-(3R,3aR,6aS)-4-(3Piperidin-1-yl-propionyl)-1-(propane-2-sulfonyl)-3-propyl-hexahydro-pyrrol[3,2-b]pyrrol-2-one DL-tartrate] |
| 0.062 | CCC[C@H]1C(=O)N(S(=O)(=O)CCC)[C@H]2CCN(C(=O)CCN3CCCCC3)[C@H]12 (relative stereo) [Example 162, rel-(3R,3aR,6aS)-4-(3-Piperidin-1-yl-propionyl)-1-(propane-1-sulfonyl)-3-propyl-hexahydro-pyrrolo[3,2-b]pyrrol-2-one DL-tartrate] |
| 0.103 | CCCCS(=O)(=O)N1C(=O)[C@H](CCC)[C@@H]2[C@@H]1CCN2C(=O)CCN1CCCCC1 (relative stereo) [Example 163, rel-(3R,3aR,6aS)-1-(Butane-1-sulfonyl)-4-(3-piperidin-1-yl-propionyl)-3-propyl-hexahydro-pyrrolo[3,2-b]pyrrol-2-one DL-tartrate] |
| 0.413 | CCC[C@H]1C(=O)N(S(=O)(=O)CC(F)(F)F)[C@H]2CCN(C(=O)CCN3CCCCC3)[C@H]12 (relative stereo) [Example 164, rel-(3R,3aR,6aS)-4-(3-Piperidin-1-yl-propionyl)-3-propyl-1-(2,2,2-trifluoro-ethanesulfonyl)-hexahydro-pyrrolo[3,2-b]pyrrol-2-one DL-tartrate] |
| 0.086 | CCC[C@H]1C(=O)N(S(=O)(=O)CC)[C@H]2CCN(S(=O)(=O)CCCN3CCCCC3)[C@H]12 (relative stereo) [Example 165, rel-(3R,3aR,6aS)-1-Ethanesulfonyl-4-(3-piperidin-1-yl-propane-1-sulfonyl)-3-propyl-hexahydro-pyrrolo[3,2-b]pyrrol-2-one DL-tartrate] |
| 0.287 | CCC[C@H]1C(=O)N(S(=O)(=O)C(C)C)[C@H]2CCN(S(=O)(=O)CCCN3CCCCC3)[C@H]12 (relative stereo) [Example 166, rel-(3R,3aR,6aS)-4-(3-Piperidin-1-yl-propane-1-sulfonyl)-1-(propane-2-sulfonyl)-3-propyl-hexahydro-pyrrolo[3,2-b]pyrrol-2-one DL-tartrate] |
| 0.038 | CCCCS(=O)(=O)N1C(=O)[C@H](CCC)[C@@H]2[C@@H]1CCN2S(=O)(=O)CCCN1CCCCC1 (relative stereo) [Example 167, rel-(3R,3aR,6aS)-1-(Butane-1-sulfonyl)-4-(3-piperidin-1-yl-propane-1-sulfonyl)-3-propyl-hexahydro-pyrrolo[3,2-b]pyrrol-2-one DL-tartrate] |
